According to patent publication US9229008B2, “IL-8 level as a determinant of responsivity of a cancer to treatment” (Merck Sharp & Dohme Corp., priority 2008, dated 2016):

Test system: IL-8
Assay: IL-8 ELISA of growth media of A2058 melanoma cells
Type: cell-based, human
Conditions: A2058 B-RAF mutant melanoma cells, 8 hours exposure; DMSO control 21024
Experimental: Experiments were also performed wherein A2058 B-RAF mutant melanoma cells were treated with ERK inhibitor #1 (structure set forth herein), ERK inhibitor #2 (structure set forth herein), the PD MEK inhibitor
[drawing 23] or DMSO as a negative-control, for 8 hours.
These experiments were performed using IL-8 ELISAs from R&D Systems (Minneapolis, Minn.). Approximately 1×10^6 A2058 cells were plated onto 10 cm dishes containing 10 ml of growth media. The following day, compound was added and allowed to incubate for 8 hours. The media was removed from the plates, diluted 32× and used in the ELISA.

Compound	IL-8 levels in growth media
Cn1cnc2c(F)c(Nc3ccc(Br)cc3Cl)c(C(=O)NOCCO)cc21 [AR]	1632 pg/mL
O=C(NOC[C@H](O)CO)c1ccc(F)c(F)c1Nc1ccc(F)cc1F [PD]	2080 pg/mL
